Data published in publication PMC4077696 (PLoS Biology, 2014).
pIC50: −log10 of the molar value. “Also recorded” adds a separate entry of the source. Counter-ions that a name gives are not always drawn.

How the values were obtained:
[1] = target: PfPMV (Plasmodium falciparum, UniProt Q8I6Z5); assay: PEXEL cleavage assay with immunopurified PfPMVHA and fluorogenic KAHRP PEXEL peptide; type: biochemical
Protocol: To investigate PvPMVHA activity, we affinity purified it, as well as the PfPMVHA control, using anti-HA agarose, as previously described,[18]. […] The proteins were incubated with a fluorogenic peptide of nine amino acids that contained the PEXEL sequence from knob-associated histidine-rich protein (KAHRP), and efficient processing was observed by both enzymes (Figure 1E). Cleavage of KAHRP by PfPMVHA was previously shown to occur after Leu (RTL↓) by mass spectrometry, and this position was also confirmed for PvPMVHA (Figure S2B–E). […] In contrast, no processing was observed when the PEXEL Arg and Leu residues were mutated to Ala (ATAAQ), consistent with the substrate specificity of PfPMV (Figure 1E). To verify that processing was due to HA-tagged PMV rather than other co-precipitated proteases, we expressed in P. falciparum a mutant of PvPMVHA or PfPMVHA [13], where one or both catalytic Asp residues were mutated to Ala (see Figure 1A,B). Following affinity purification, the mutant enzymes were incubated with KAHRP PEXEL peptides, but no processing was observed (Figure 1E; blue, white), confirming that the PEXEL-dependent cleavage activity observed for each protease was attributable only to HA-tagged PMV.
Each compound was incubated with PfPMVHA in the presence of KAHRP PEXEL peptides.
PMV-agarose was prepared by adding α-HA-agarose (Sapphire Bioscience) to parasite lysates, prepared by sonication in 1% Triton X-100/PBS, for 1 h before extensive washing in same,[13]. PEXEL cleavage assays (20 µl total volume) consisted of 0.2 µl PMV-agarose in digest buffer (25 mM Tris, 25 mM MES, pH 6.4) with 1.5 µM FRET peptide substrate (DABCYL-[…]-E-EDANS, DABCYL-[…]-E-EDANS, LifeTein; DABCYL-[…]-E-EDANS, DABCYL-[…]-E-EDANS; Mimotopes) ± inhibitor. Samples were excited at 340 nm and fluorescence emission measured at 492 nm using an Envision fluorescence plate reader (Perkin-Elmer) heated to 37°C for 150 min. Samples were shaken between measurements. For determination of the peptide cleavage position by PvPMVHA, the fluorogenic peptide (DABCYL-[…]-E-EDANS), representing the wild-type KAHRP PEXEL sequence, was incubated with and without PvPMVHA at 37°C for 48 h. Products of the incubation were detected by a molecular formula algorithm using an Agilent 6200 TOF/6500 series mass spectrometer.

[2] = target: PMV in P. falciparum–infected erythrocytes (Plasmodium falciparum, UniProt Q8I6Z5); assay: PEXEL processing of GFP reporters in parasites by immunoblot; type: cell-based; details: for PEXEL processing of KAHRP-GFP in parasites, in words / PEXEL processing of PfEMP3-GFP in parasites, in words: 5 h treatment, immunoblot; for PEXEL processing of KAHRP-GFP in parasites, in words: 20 and 50 µM; for PEXEL processing of PfEMP3-GFP in parasites, in words: up to 50 µM
Sequence of PMV in P. falciparum–infected erythrocytes (Q8I6Z5 whole entry, the tested form may be a part): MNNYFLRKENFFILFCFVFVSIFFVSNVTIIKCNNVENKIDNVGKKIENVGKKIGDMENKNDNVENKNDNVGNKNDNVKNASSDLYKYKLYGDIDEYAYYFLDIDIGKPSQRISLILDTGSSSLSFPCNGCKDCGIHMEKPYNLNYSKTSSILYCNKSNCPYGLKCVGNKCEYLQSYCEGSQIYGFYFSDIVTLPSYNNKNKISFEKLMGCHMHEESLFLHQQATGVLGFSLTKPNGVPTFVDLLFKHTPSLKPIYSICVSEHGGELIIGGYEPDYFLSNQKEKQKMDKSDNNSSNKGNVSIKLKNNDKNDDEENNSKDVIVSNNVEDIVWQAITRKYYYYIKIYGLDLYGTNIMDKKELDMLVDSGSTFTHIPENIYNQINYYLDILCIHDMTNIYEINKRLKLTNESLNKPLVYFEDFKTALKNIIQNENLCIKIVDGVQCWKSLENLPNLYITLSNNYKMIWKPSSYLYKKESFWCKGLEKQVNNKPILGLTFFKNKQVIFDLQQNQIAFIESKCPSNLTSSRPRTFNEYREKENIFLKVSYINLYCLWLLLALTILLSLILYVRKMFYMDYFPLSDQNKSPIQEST
Protocol: To assess whether 916 could inhibit PMV in P. falciparum–infected erythrocytes, parasites expressing the PEXEL protein P. falciparum erythrocyte membrane protein 3 (PfEMP3) fused to green fluorescent protein (GFP) were treated with increasing concentrations of inhibitor, and PEXEL processing was evaluated by immunoblot. […] A GFP-only band, representing degraded chimera in the food vacuole, was also observed at ∼26 kDa (Figure 3A).
(§1) Trophozoites (30–34 h) expressing PfEMP3-GFP, KAHRP-GFP, or SERA5s-GFP were magnet-purified (Miltenyi Biotech), incubated with inhibitors in 400 µl total volume at 37°C for 1–5 h, treated with 0.09% saponin containing inhibitor, and washed pellets were solubilized in Laemmli's buffer, boiled for 3 min, and frozen at −20°C. Proteins were separated by SDS-PAGE, transferred to nitrocellulose and blocked in 10% skim milk/PBS-T, and probed with rat α-HA (Roche 3F10; 1∶1,000), mouse α-GFP (Roche; 1∶1,000), rabbit α-Aldolase (1∶1,000), rabbit α-HSP70 (1∶4,000), rabbit α-PfPMV (1∶1,000), or rabbit α-Hyp8 (1∶500) primary antibodies followed by horseradish peroxidase-conjugated secondary antibodies (Silenius) and detected by enhanced chemiluminescence (Amersham).

[3] = tested on: cytoadherence of infected erythrocytes to CSA; assay: Static adhesion of infected erythrocytes to chondroitin sulfate A (CSA); type: cell-based, Plasmodium falciparum; details: static conditions
Protocol: Adhesion assays were performed as described previously,[33]. Briefly, CSA (Sigma) was spotted at 50 µg/ml in triplicate into petri dishes, incubated overnight at 4°C, and blocked in 1% casein/PBS for 2 h. Inhibitor-treated erythrocytes were added to CSA-coated dishes and incubated for 45 min at 37°C. Dishes were washed four times with 5 ml warm RPMI-HEPES, fixed in 2% paraformaldehyde for 2 h, stained with 10% Giemsa for 15 min, and the number of adherent erythrocytes per mm^2 quantified by light microscopy counts. Assays were performed in triplicate.

[4] = tested on: Human Foreskin Fibroblasts (HFF); assay: Toxicity against Human Foreskin Fibroblasts; type: cell-based; details: Fibroblast
[5] = tested on: signal peptidase; assay: Signal peptide cleavage of SERA5s-GFP in parasites by immunoblot; type: cell-based, Plasmodium falciparum; details: for Signal peptide cleavage of SERA5s-GFP, in words: 20 µM for 5 h
Protocol: This protein contains a signal peptide but lacks a PEXEL and is efficiently secreted to the parasitophorous vacuole (Figure S3B).
as §1

Sequence of PfPMV (Q8I6Z5 34-590): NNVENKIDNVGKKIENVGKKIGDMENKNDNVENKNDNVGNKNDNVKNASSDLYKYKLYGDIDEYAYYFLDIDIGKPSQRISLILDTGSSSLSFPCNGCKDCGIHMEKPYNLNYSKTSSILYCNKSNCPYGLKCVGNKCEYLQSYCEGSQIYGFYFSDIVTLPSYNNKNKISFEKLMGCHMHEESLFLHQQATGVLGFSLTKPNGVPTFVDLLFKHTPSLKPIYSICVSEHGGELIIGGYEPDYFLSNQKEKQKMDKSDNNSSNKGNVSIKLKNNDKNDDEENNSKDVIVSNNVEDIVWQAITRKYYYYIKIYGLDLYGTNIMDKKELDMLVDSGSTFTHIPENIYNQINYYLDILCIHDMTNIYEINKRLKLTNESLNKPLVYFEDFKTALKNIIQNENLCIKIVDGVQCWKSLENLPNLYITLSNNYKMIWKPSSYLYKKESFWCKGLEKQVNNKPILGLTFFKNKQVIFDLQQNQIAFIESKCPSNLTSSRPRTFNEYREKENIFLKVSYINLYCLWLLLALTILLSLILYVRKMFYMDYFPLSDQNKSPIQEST

Structure (SMILES) | pIC50 ([1]; IC50 PfPMVHA, PEXEL cleavage) | Inhibition of PfEMP3-GFP cleavage after 2 to 5 h of treatment ([2]; 2 to 5 h) | Inhibition of PfEMP3-GFP cleavage after 1 h of treatment ([2]; 1 h) | PEXEL processing of KAHRP-GFP in parasites, in words [2] | PEXEL processing of PfEMP3-GFP in parasites, in words [2] | inhibition at 20 µM ([2]; read-out: Rescue of PfEMP3-GFP cleavage inhibition in inhibitor-free medium) | Reduction of adhesion to CSA ([3]; compared to DMSO) | pIC50 [4] | Signal peptide cleavage of SERA5s-GFP, in words [5] | pIC50 ([1]; IC50 PfPMV, PfPMVHA) | Effect on adhesion to CSA, in words [3] | Effect on PMV or signal peptidase activity in parasites, in words ([5]; concentrations up to 50 µM)
CC(C)C[C@H](NC(=O)[C@@H](NC(=O)[C@H](CCCNC(=N)N)NS(=O)(=O)Cc1ccccc1)C(C)C)[C@@H](O)CC(=O)NCCc1ccccc1 [compound 916, PhCH2SO2-Arg(NH2)-Val-Sta-NH(CH2)2Ph .TFA] | 7.70 | uncleaved PfEMP3-GFP increased | No effect | accumulation of both uncleaved (black arrow) and signal peptide-cleaved (red arrow) protein | dose-dependent increase in unprocessed PfEMP3-GFP | ~50% | ~50% | < 4.00 | no defect; also recorded: did not impair processing of the signal peptide | – | – | –
CC[C@H](C)[C@H](NC(=O)[C@@H](NC(=O)[C@H](CCCNC(=N)N)NS(=O)(=O)Cc1ccccc1)C(C)C)[C@@H](O)CC(=O)NCCc1ccccc1 [compound 025, PhCH2SO2Arg-Val-AHMHpA-NH(CH2)2Ph . TFA] | – | – | – | no effect | no effect | – | – | < 4.00 | no defect | 5.95 | no effect | no affect
